In patent US7053123B2, “Substituted (e)-styryl benzylsulfones for treating proliferative disorders” (Temple University-of the Commonwealth System of Higher …, priority 2000, dated 2006) one finds cell death, growth inhibition and IC50 data, which are given here for two compounds.

Common to all, as to format: cell-based
For assay [1], the system named is NIH/3T3 normal murine fibroblasts. In words: Normal fibroblast viability assay (Trypan blue exclusion), NIH 3T3. Particulars: normal cells NIH 3T3; treated at 100-1000 nM; 96 hours. The text has this:
(§1) The effect of the Example 13 compound on the growth of normal fibroblasts and on tumor cells of prostate, colon, lung, brain, pancreas and breast origin was examined utilizing the following cell lines: prostate carcinoma cell line DU-145; colorectal carcinoma cell line DLD-1; non-small cell lung carcinoma cell line H157; pancreatic carcinoma cell line MIA-Pa-Ca-2; glioblastoma cell line U87; and breast adenocarcinoma cell line BT-20. BT-20 is an estrogen-unresponsive cell line. NIH/3T3 and HFL are normal murine and human fibroblasts, respectively. BT-20, DLD-1 and H157 were grown in Dulbecco's modified Eagle's medium (DMEM) containing 10% fetal bovine serum supplemented with penicillin and streptomycin. DU145 was cultured in RPMI with 10% fetal bovine serum containing penicillin and streptomycin. NIH3T3 and HFL cells were grown in DMEM containing 10% calf serum supplemented with penicillin and streptomycin. Cells were plated at density levels of 1.0×10^5 cells per well in six-well plates. Cell cultures were maintained at 37° C. in a humidified atmosphere of 5% CO2.
(§2) Cells were treated with the Example 13 compound at concentrations of 100, 250, 500 and 1000 nM. Cell viability was determined after 96 hours by the Trypan blue exclusion method. […] The drug G150 (the concentration resulting in 50% growth inhibition) was calculated as 200 nM for the MIA-Pa-Ca-2 cell line.

The test system of assay [2] is HFL normal human fibroblasts. Nature of the assay: Normal fibroblast viability assay (Trypan blue exclusion), HFL. To be noted: normal cells HFL; treated at 100-1000 nM; 96 hours.
Text: as §1, §2

Assay [3] deals with pancreatic carcinoma cell line MIA-Pa-Ca-2. In words: Tumor cell viability assay (Trypan blue exclusion), MIA-Pa-Ca-2. To be noted: MIA-Pa-Ca-2 cell line, 96 hours, vs DMSO-treated cells, read-out: G150 (the concentration resulting in 50% growth inhibition).
Text: as §1, §2

Assay [4] relates to non-small cell lung carcinoma cell line H157. In words: Tumor cell viability assay (Trypan blue exclusion), H157. To be noted: tested at 5, 10 and 20 μM, 96 hours, read-out: G150 (the concentration resulting in 50% growth inhibition).
Text: as §1, with “NIH3T3 and HFL cells were grown in DMEM containing 10% calf serum supplemented with penicillin and streptomycin. Cells were plated at density levels of 1.0×10^5 cells per well in six-well plates. Cell cultures were maintained at 37° C. in a humidified atmosphere of 5% CO2.” left out
as §2
(§3) The procedure of Example 40 was followed for the compound of Example 37, on cell lines DLD-1, H157 and BT20, at 5, 10 and 20 μM concentrations. The drug G150 was calculated for each cell line as follows: DLD, 8 μM; H157, 15 μM; and BT20, 15 μM.

Assay [5] relates to breast adenocarcinoma cell line BT-20. Nature of the assay: Tumor cell viability assay (Trypan blue exclusion), BT-20. To be noted: BT20 cell line, tested at 5, 10 and 20 μM, 96 hours, read-out: G150 (the concentration resulting in 50% growth inhibition).
Text: as §1, with “NIH3T3 and HFL cells were grown in DMEM containing 10% calf serum supplemented with penicillin and streptomycin. Cells were plated at density levels of 1.0×10^5 cells per well in six-well plates. Cell cultures were maintained at 37° C. in a humidified atmosphere of 5% CO2.” left out
as §2, §3

In assay [6] the test system is colorectal carcinoma cell line DLD-1. In words: Tumor cell viability assay (Trypan blue exclusion), DLD-1. Particulars: DLD-1 cell line, tested at 5, 10 and 20 μM, 96 hours, read-out: G150 (the concentration resulting in 50% growth inhibition).
Text: as §1, with “NIH3T3 and HFL cells were grown in DMEM containing 10% calf serum supplemented with penicillin and streptomycin. Cells were plated at density levels of 1.0×10^5 cells per well in six-well plates. Cell cultures were maintained at 37° C. in a humidified atmosphere of 5% CO2.” left out
as §2, §3

For “(E)-2,6-Dimethoxystyryl-4-methoxybenzylsulfone [Example 13]”, the cell death result in assay [1] and in assay [2] was “no appreciable cell death” in each case. Further, the growth inhibition in assay [1] and in assay [2] was 5% each time. In addition, the IC50 in assay [3] is 0.2 µM.
For the compound `O=[N+]([O-])c1ccccc1/C=C/S(=O)(=O)Cc1ccc(Cl)cc1Cl` [Example 37, (E)-2-Nitrostyryl-2,4-dichlorobenzylsulfone], the IC50 was determined as 15 µM in assay [4], 15 µM in assay [5] and 8 µM in assay [6].
